# From patent US20250281451A1, “COMPOSITIONS AND METHODS FOR MODULATING SLEEP AND USES THEREOF” (Brightseed, Inc., priority 2022, published 2025)
# Entries after “also recorded” stand apart in the source; their conditions may differ.
# Key:
# [1] = target: T1, Orx2 (Homo sapiens, UniProt O43614); assay: Orx2 antagonist screening, chemiluminescent cell assay with Orexin B EC80; assay type: cell-based; conditions: for % Agonism Orx2 at Relative IC50: absolute percent agonism at the μM concentration of the relative OR2 IC50; for IC50: antagonist mode against Orexin B EC80, read-out: Relative IC50 of Orx2
# T1 construct: DiscoverX
# T1 sequence (O43614 1-444): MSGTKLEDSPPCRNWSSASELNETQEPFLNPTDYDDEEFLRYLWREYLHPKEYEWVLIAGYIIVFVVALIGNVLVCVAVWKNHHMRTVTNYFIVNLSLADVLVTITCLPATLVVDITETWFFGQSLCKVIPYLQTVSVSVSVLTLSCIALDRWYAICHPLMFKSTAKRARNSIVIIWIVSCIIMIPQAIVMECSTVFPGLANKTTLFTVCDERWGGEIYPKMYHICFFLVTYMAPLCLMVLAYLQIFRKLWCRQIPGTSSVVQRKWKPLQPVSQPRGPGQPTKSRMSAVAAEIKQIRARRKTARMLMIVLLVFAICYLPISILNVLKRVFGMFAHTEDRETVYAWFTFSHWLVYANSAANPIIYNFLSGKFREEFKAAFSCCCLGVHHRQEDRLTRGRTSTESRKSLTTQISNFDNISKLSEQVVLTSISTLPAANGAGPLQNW
# Description: For this example, the following protocol was used: 1.) seed cells in 20 μL Cell Plating Reagent; 2.) incubate cells overnight at 37° C. and 5% CO2; 3.) treat cells with 2.5 μL 10× antagonist prepared in Compound Dilution Buffer (For OR2 screening, 2.5 μL of 1:100 natural product sample in DiscoverX cell plating reagent. Control antagonist, Seltorexant, 10× stock was prepared at 1500 nM); 4.) incubate for 30 minutes at 37° C. and 5% CO2; 5.) treat cells with 2.5 μL 10× agonist prepared in Compound Dilution Buffer (For OR2 screening, 2.5 μL of 10× Orexin B EC80, 252.7 nM); 6.) incubate for 90 minutes at 37° C. and 5% CO2; 7.) add 12.5 μL Working Detection Solution; 8.) incubate for 1 hour at room temperature in the dark; and 9.) read chemiluminescent signal.
# (§1) The plants described herein were tested to determine the concentration, in μM, to achieve the relative IC50 of OR2 receptor, the absolute percent agonism achieved at the μM concentration of the relative OR2 IC50, the percentage receptor activity at the concentration, in μM, needed to achieve IC50 in OR2, the percentage cell viability, measured by XTT assay, at the IC50 μM concentration, the concentration of the fraction, in fold dilution, needed to achieve IC50 of OR2, and the percentage receptor activity at the concentration of the fraction, in fold dilution, needed to achieve IC50 of OR2.
# [2] = system: male Sprague-Dawley rat; assay: in vivo tolerability, dose escalation, adverse effect observation; conditions: for 15 min effects (adverse effects) / 30 min effects (adverse effects) / 60 min effects (adverse effects): n=3 rats, (x/3) animals affected; for tolerability: all four doses (30, 100, 315 and 500 mg/kg) p.o., 60 min observation
# Description: In this example, the in vivo tolerability of Compounds 26, 21, 29, and 13 was assessed.
# Naïve rats (male Sprague-Dawley rat) were acclimatized to the procedure room in their home cages up to 7 days following arrival to the test facility, with food and water available ad libitum. On the day of experiment, animals were acclimatized to the experimental room for at least one hour prior to the beginning of any experiment. All animals were tail marked, weighed and randomly assigned to treatment groups. The animals (n=3 per dose) were treated with either Compounds 26, 21, 29, and 13 (10 mL/kg, p.o.). For each compound a maximum of 4 doses were tested using a dose escalation procedure starting from 30 mg/kg. If this initial dose is well-tolerated, the dosage is increased to 100 mg/kg. If the 30 mg/kg dose is not tolerated, the dose is reduced to 15 mg/kg. Following the dose escalation procedure, if the 100 mg/kg dose is well-tolerated, the dose is escalated to 315 mg/kg. If it is not tolerated, the dose is decreased to 60 mg/kg. The pattern continues with the next decision point: if 315 mg/kg is well-tolerated, the dose is increased to the maximum of 500 mg/kg. If 315 mg/kg is not tolerated, the dose is decreased to 200 mg/kg.
# The compounds would be considered not tolerated if three or more adverse effects (or any severe adverse effect) occurred at specific dose during the entire period of 60 mins. […] Mild—slight decrease in activity, responsive when provoked. Moderate—decrease in activity, less responsive when provoked.
# [3] = system: cells; assay: cell viability, XTT assay; assay type: cell-based; conditions: at the IC50 μM concentration of the compound
# Description: as §1
# [4] = target: T2, Orx1 (Homo sapiens, UniProt O43613); assay: % agonism on Orx1 at the OR2 IC50 concentration; assay type: cell-based; conditions: at the μM concentration needed to achieve IC50 in OR2
# T2 sequence (O43613 1-425): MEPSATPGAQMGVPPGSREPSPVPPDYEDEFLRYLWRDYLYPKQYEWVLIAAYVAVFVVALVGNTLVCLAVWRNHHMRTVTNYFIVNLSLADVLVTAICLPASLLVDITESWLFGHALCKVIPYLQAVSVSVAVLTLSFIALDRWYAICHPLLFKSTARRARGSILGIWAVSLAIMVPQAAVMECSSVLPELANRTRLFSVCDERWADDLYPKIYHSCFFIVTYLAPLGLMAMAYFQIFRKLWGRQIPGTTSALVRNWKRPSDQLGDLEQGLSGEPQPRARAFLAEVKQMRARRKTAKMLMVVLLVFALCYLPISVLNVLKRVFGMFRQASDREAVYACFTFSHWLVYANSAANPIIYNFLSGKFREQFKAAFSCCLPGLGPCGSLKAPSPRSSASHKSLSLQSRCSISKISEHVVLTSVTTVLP
# Description: For this example, the following protocol was used: 1.) seed cells in 20 μL Cell Plating Reagent; 2.) incubate cells overnight at 37° C. and 5% CO2; 3.) treat cells with 2.5 μL 10× antagonist prepared in Compound Dilution Buffer (For OR2 screening, 2.5 μL of 1:100 natural product sample in DiscoverX cell plating reagent.
# as §1
Structure (SMILES),% Agonism Orx2 at Relative IC50 [1] [%],IC50 [1] [µM],"IC50 Dilution of Orx2 (fold dilution) ([1]; concentration of the fraction of the plant source, in fold dilution, needed to achieve IC50 of OR2)",15 min effects (adverse effects) ([2]; 30 mg/kg p.o.),30 min effects (adverse effects) ([2]; 30 mg/kg p.o.),60 min effects (adverse effects) ([2]; 30 mg/kg p.o.),15 min effects (adverse effects) ([2]; 100 mg/kg p.o.),30 min effects (adverse effects) ([2]; 100 mg/kg p.o.),60 min effects (adverse effects) ([2]; 100 mg/kg p.o.),15 min effects (adverse effects) ([2]; 315 mg/kg p.o.),30 min effects (adverse effects) ([2]; 315 mg/kg p.o.),60 min effects (adverse effects) ([2]; 315 mg/kg p.o.),15 min effects (adverse effects) ([2]; 500 mg/kg p.o.),30 min effects (adverse effects) ([2]; 500 mg/kg p.o.),60 min effects (adverse effects) ([2]; 500 mg/kg p.o.),tolerability [2],% Cell viability at IC50 [3] [%],% Agonism on Orx1 at OR2 IC50 [4] [%]
"O=c1cc(-c2ccc(O)c(O)c2)oc2cc(O)cc(O)c12 [Compound 13, 2-(3,4-dihydroxyphenyl)-5,7-dihydroxychromen-4-one]",50,72.5,2283.9,No adverse effects,No adverse effects,Reduced activity (3/3),No adverse effects,Reduced activity,No adverse effects,No adverse effects,No adverse effects,No adverse effects,Pica (2/3),Reduced activity; also recorded: Pica (2/3),Reduced activity (1/3),well-tolerated,98.24,42.72
"COc1cc(-c2oc3c(OC)c(O[C@@H]4O[C@H](COC(C)=O)[C@@H](O)[C@H](O)[C@H]4O[C@@H]4O[C@@H](C)[C@H](O)[C@@H](O)[C@H]4O)cc(O)c3c(=O)c2O)ccc1O [Compound 25, [(2R,3S,4S,5R,6S)-6-[3,5-dihydroxy-2-(4-hydroxy-3-methoxyphenyl)-8-methoxy-4-oxochromen-7-yl]oxy-3,4-dihydroxy-5-[(2S,3R,4R,5R,6S)-3,4,5-trihydroxy-6-methyloxan-2-yl]oxyoxan-2-yl]methyl acetate]",50,148,,,,,,,,,,,,,,,91.68,103.7053
"O=c1c(O[C@@H]2OC[C@H](O)[C@H](O)[C@H]2O)c(-c2ccc(O)cc2)oc2cc(O)cc(O)c12 [Compound 26, 5,7-dihydroxy-2-(4-hydroxyphenyl)-3-[(2S,3R,4S,5S)-3,4,5-trihydroxyoxan-2-yl]oxychromen-4-one]",40,179,,Reduced activity,No adverse effects,Reduced activity (3/3),Reduced activity,Reduced activity,Reduced activity (3/3),No adverse effects,No adverse effects,No adverse effects,No adverse effects,Reduced activity,No adverse effects,well-tolerated,98.95,60.57
"O=c1c(O[C@@H]2O[C@@H](CO)[C@H](O)[C@H]2O)c(-c2ccc(O)cc2)oc2cc(O)cc(O)c12 [Compound 27, 3-[(2S,3R,4R,5S)-3,4-dihydroxy-5-(hydroxymethyl)oxolan-2-yl]oxy-5,7-dihydroxy-2-(4-hydroxyphenyl)chromen-4-one]",45,154,,,,,,,,,,,,,,,101.69,56.18
"COc1c(O)cc2oc(-c3ccc(O[C@@H]4O[C@H](C(=O)O)[C@@H](O)[C@H](O)[C@H]4O)c(O)c3)c(OC)c(=O)c2c1O [Compound 28, (2S,3S,4S,5R,6S)-6-[4-(5,7-dihydroxy-3,6-dimethoxy-4-oxochromen-2-yl)-2-hydroxyphenoxy]-3,4,5-trihydroxyoxane-2-carboxylic acid]",50,154,,,,,,,,,,,,,,,107.58,75.74
"Cc1cc(O)c2c(c1)C(=O)c1cc(O)cc(O[C@@H]3O[C@H](CO)[C@@H](O)[C@H](O)[C@H]3O)c1C2=O [Compound 30, 1,6-dihydroxy-3-methyl-8-[(2S,3R,4S,5S,6R)-3,4,5-trihydroxy-6-(hydroxymethyl)oxan-2-yl]oxyanthracene-9,10-dione]",50,81.3,,,,,,,,,,,,,,,100,26.23
